According to patent US20250263376A1, “(E)-N-CINNAMOYLAMINOALKANOLS WITH MELANOGENESIS INHIBITORY ACTIVITY” (Uniwersytet Jagiellonski, priority 2024, published 2025):

What was measured:
[1] = tested on: hepatocarcinoma HepG2; assay: Safety, LDH test in HepG2; format: cell-based; settings: 48 hours, vs Triton X-100
Experimental: (§1) In order to test the safety of the compounds, both normal human cells were used: keratinocytes (HaCaT), fibroblasts (BJ), primary melanocytes that occur in the skin, as well as human cancer cells: the hepatocarcinoma line HepG2 and the neuroblastoma line SH-SY5Y, which are considered a model for the assessment of hepatocytotoxicity and neurocytotoxicity. The concentrations of the tested compounds in the range of […] were used in the studies. The cell lines used in the research were purchased from the American Type Culture Collection (ATCC) and were cultured in media recommended by the manufacturer with the addition of FBS and antibiotics in an incubator ensuring appropriate culture conditions, i.e. humidity, temperature and CO2 concentration. Cells were seeded into multiwell plates and incubated with the test compounds for 48 hours. After this time, MTT and LDH tests were performed to assess cell viability. The MTT test is based on the ability to transform the substrate: [3-(4,5-dimethyl-2-thiazolyl)-2,5-diphenyl-2H-tetrazolium bromide into a colored product only by living cells. The absorbance at 570 nm, which corresponds to the absorption maximum for the product, is directly proportional to cell viability. The LDH test is based on testing the activity of the enzyme lactate dehydrogenase in the culture medium, which is released from cells as a result of damage to the cell membrane, e.g. as a result of cell death. Triton X-100 was used as a positive control in the test. The determination is colorimetric, the substrate is transformed by the released enzyme into a colored product, an increase in absorbance indicates a larger amount of the released enzyme, and thus confirms greater damage to cell membranes. Tables 7 and 8 present the results obtained, which correspond to the viability of cells incubated with the compounds in relation to the viability of cells constituting a control sample, i.e. incubated with the solvent (DMSO) at the same concentration as in the case of the groups tested in the MTT test or in relation to the results obtained for the Triton X-100 positive control in the LDH test. They indicate that the compounds are safe at the concentrations tested.

[2] = tested on: neuroblastoma SH-SY5Y; assay: Safety, MTT test in SH-SY5Y; format: cell-based; settings: 48 hours
Experimental: as §1

[3] = tested on: primary melanocytes; assay: Safety, MTT test in primary melanocytes; format: cell-based; settings: 48 hours
Experimental: as §1

[4] = tested on: fibroblasts (BJ); assay: Safety, MTT test in fibroblasts; format: cell-based; settings: 48 hours
Experimental: as §1

[5] = tested on: hepatocarcinoma HepG2; assay: Safety, MTT test in HepG2; format: cell-based; settings: 48 hours
Experimental: as §1

[6] = tested on: fibroblasts (BJ); assay: Safety, LDH test in fibroblasts; format: cell-based; settings: 48 hours, vs Triton X-100
Experimental: as §1

[7] = tested on: primary melanocytes; assay: Safety, LDH test in primary melanocytes; format: cell-based; settings: 48 hours, vs Triton X-100
Experimental: as §1

[8] = tested on: neuroblastoma SH-SY5Y; assay: Safety, LDH test in SH-SY5Y; format: cell-based; settings: 48 hours, vs Triton X-100
Experimental: as §1

[9] = tested on: S. typhimurium TA1537; assay: Ames microplate test, TA1537; format: cell-based, Salmonella typhimurium; settings: without S9
Experimental: Bacteria were grown overnight in growth medium.

[10] = tested on: S. typhimurium TA1535; assay: Ames microplate test, TA1535; settings: without S9;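 further: bacteria exposed 90 min at 37 °C in exposure medium, then 48 h in indicator medium in 384-well plates, yellow (revertant) wells counted per condition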

Compound | LDH, Hepatocarcinoma HepG2 ([1]; 100 μM) | LDH, Hepatocarcinoma HepG2 ([1]; 150 μM) | LDH, Hepatocarcinoma HepG2 ([1]; 200 μM) | LDH, Hepatocarcinoma HepG2 ([1]; 250 μM) | MTT, Neuroblastoma SH-SY5Y ([2]; 100 μM) | MTT, Neuroblastoma SH-SY5Y ([2]; 150 μM) | MTT, Neuroblastoma SH-SY5Y ([2]; 200 μM) | MTT, Neuroblastoma SH-SY5Y ([2]; 250 μM) | MTT, Primary melanocytes ([3]; 100 μM) | MTT, Primary melanocytes ([3]; 150 μM) | MTT, Primary melanocytes ([3]; 200 μM) | MTT, Primary melanocytes ([3]; 250 μM) | MTT, Fibroblasts (BJ) ([4]; 100 μM) | MTT, Fibroblasts (BJ) ([4]; 150 μM) | MTT, Fibroblasts (BJ) ([4]; 200 μM) | MTT, Fibroblasts (BJ) ([4]; 250 μM) | MTT, Hepatocarcinoma HepG2 ([5]; 100 μM) | MTT, Hepatocarcinoma HepG2 ([5]; 150 μM) | MTT, Hepatocarcinoma HepG2 ([5]; 200 μM) | MTT, Hepatocarcinoma HepG2 ([5]; 250 μM) | also measured
O=C(/C=C/c1ccc(Cl)cc1)NCCCO [H-330/21, (2E)-3-(4-chlorophenyl)-N-(3-hydroxypropyl)prop-2-enamide] | 5.38 percentage of positive control | 4.90 percentage of positive control | 12.16 percentage of positive control | 19.02 percentage of positive control | 99.79 ± 5.34 % of solvent control | 99.86 ± 3.76 % of solvent control | 99.79 ± 3.97 % of solvent control | 99.11 ± 3.66 % of solvent control | 101.42 ± 2.21 % of solvent control | 97.02 ± 4.49 % of solvent control | 93.78 ± 2.29 % of solvent control | 90.27 ± 2.25 % of solvent control | 100.54 ± 5.01 % of solvent control | 94.85 ± 3.51 % of solvent control | 85.52 ± 3.08 % of solvent control | 76.51 ± 1.80 % of solvent control | 100.73 ± 4.51 % of solvent control | 100.44 ± 3.93 % of solvent control | 100.86 ± 6.41 % of solvent control | 93.16 ± 1.71 % of solvent control | LDH, Fibroblasts (BJ) ([6]; 100 μM): 4.74 percentage of positive control; LDH, Fibroblasts (BJ) ([6]; 150 μM): 6.50 percentage of positive control; LDH, Fibroblasts (BJ) ([6]; 200 μM): 14.25 percentage of positive control; LDH, Fibroblasts (BJ) ([6]; 250 μM): 28.74 percentage of positive control; LDH, Primary melanocytes ([7]; 100 μM): 5.63 percentage of positive control; LDH, Primary melanocytes ([7]; 150 μM): 13.09 percentage of positive control; LDH, Primary melanocytes ([7]; 200 μM): 10.91 percentage of positive control; LDH, Primary melanocytes ([7]; 250 μM): 18.10 percentage of positive control; LDH, Neuroblastoma SH-SY5Y ([8]; 100 μM): 6.19 percentage of positive control; LDH, Neuroblastoma SH-SY5Y ([8]; 150 μM): 4.90 percentage of positive control; LDH, Neuroblastoma SH-SY5Y ([8]; 200 μM): 8.35 percentage of positive control; LDH, Neuroblastoma SH-SY5Y ([8]; 250 μM): 13.41 percentage of positive control
Cc1ccc(/C=C/C(=O)NCCCCCO)cc1 [H-415/21, (2E)-N-(5-hydroxypentyl)-3-(4-methylphenyl)prop-2-enamide] | 3.90 percentage of positive control | 7.24 percentage of positive control | 8.92 percentage of positive control | 15.47 percentage of positive control | 100.68 ± 4.63 % of solvent control | 99.32 ± 2.96 % of solvent control | 100.27 ± 3.50 % of solvent control | 101.71 ± 2.38 % of solvent control | 103.27 ± 1.88 % of solvent control | 99.89 ± 2.43 % of solvent control | 94.81 ± 2.92 % of solvent control | 87.64 ± 1.44 % of solvent control | 102.12 ± 2.71 % of solvent control | 101.92 ± 2.88 % of solvent control | 96.13 ± 3.64 % of solvent control | 92.86 ± 4.30 % of solvent control | 100.32 ± 1.75 % of solvent control | 99.54 ± 5.74 % of solvent control | 100.53 ± 3.98 % of solvent control | 98.90 ± 4.21 % of solvent control | Increase in the number of yellow wells compared to the reference level, TA1537 ([9]; 0.5 mM): 0.33; Increase in the number of yellow wells compared to the reference level, TA1537 ([9]; 1.0 mM): 0.33; Increase in the number of yellow wells compared to the reference level, TA1537 ([9]; 2.0 mM): 0.00; Increase in the number of yellow wells compared to the reference level, TA1535 ([10]; 0.5 mM): 0.21; Increase in the number of yellow wells compared to the reference level, TA1535 ([10]; 1.0 mM): 0.41; Increase in the number of yellow wells compared to the reference level, TA1535 ([10]; 2.0 mM): 0.10; LDH, Fibroblasts (BJ) ([6]; 100 μM): 8.81 percentage of positive control; LDH, Fibroblasts (BJ) ([6]; 150 μM): 8.75 percentage of positive control; LDH, Fibroblasts (BJ) ([6]; 200 μM): 9.82 percentage of positive control; LDH, Fibroblasts (BJ) ([6]; 250 μM): 16.63 percentage of positive control; LDH, Primary melanocytes ([7]; 100 μM): 4.22 percentage of positive control; LDH, Primary melanocytes ([7]; 150 μM): 6.01 percentage of positive control; LDH, Primary melanocytes ([7]; 200 μM): 8.34 percentage of positive control; LDH, Primary melanocytes ([7]; 250 μM): 14.94 percentage of positive control; LDH, Neuroblastoma SH-SY5Y ([8]; 100 μM): 3.90 percentage of positive control; LDH, Neuroblastoma SH-SY5Y ([8]; 150 μM): 7.24 percentage of positive control; LDH, Neuroblastoma SH-SY5Y ([8]; 200 μM): 8.92 percentage of positive control; LDH, Neuroblastoma SH-SY5Y ([8]; 250 μM): 10.55 percentage of positive control
O=C(/C=C/c1ccc(Cl)cc1)NCCO [H-427/21, (2E)-3-(4-chlorophenyl)-N-(2-hydroxyethyl)prop-2-enamide] | 3.09 percentage of positive control | 4.45 percentage of positive control | 5.98 percentage of positive control | 13.51 percentage of positive control | 100.48 ± 3.67 % of solvent control | 100.96 ± 2.72 % of solvent control | 101.30 ± 2.94 % of solvent control | 102.60 ± 9.66 % of solvent control | 102.20 ± 2.24 % of solvent control | 100.57 ± 2.18 % of solvent control | 93.78 ± 2.18 % of solvent control | 85.19 ± 2.03 % of solvent control | 101.82 ± 3.99 % of solvent control | 100.76 ± 3.34 % of solvent control | 100.37 ± 3.92 % of solvent control | 98.13 ± 2.81 % of solvent control | 99.61 ± 4.37 % of solvent control | 98.44 ± 3.94 % of solvent control | 97.07 ± 4.00 % of solvent control | 100.08 ± 10.58 % of solvent control | LDH, Fibroblasts (BJ) ([6]; 100 μM): 2.75 percentage of positive control; LDH, Fibroblasts (BJ) ([6]; 150 μM): 5.92 percentage of positive control; LDH, Fibroblasts (BJ) ([6]; 200 μM): 9.00 percentage of positive control; LDH, Fibroblasts (BJ) ([6]; 250 μM): 17.32 percentage of positive control; LDH, Primary melanocytes ([7]; 100 μM): 3.93 percentage of positive control; LDH, Primary melanocytes ([7]; 150 μM): 4.44 percentage of positive control; LDH, Primary melanocytes ([7]; 200 μM): 4.31 percentage of positive control; LDH, Primary melanocytes ([7]; 250 μM): 15.01 percentage of positive control; LDH, Neuroblastoma SH-SY5Y ([8]; 100 μM): 3.09 percentage of positive control; LDH, Neuroblastoma SH-SY5Y ([8]; 150 μM): 4.45 percentage of positive control; LDH, Neuroblastoma SH-SY5Y ([8]; 200 μM): 5.98 percentage of positive control; LDH, Neuroblastoma SH-SY5Y ([8]; 250 μM): 8.87 percentage of positive control
